According to ChEMBL document CHEMBL1201862, “PubChem BioAssay data set” (2004):
Calls of active or inactive are those of the source.

Assays:
[1] = biological target: T1, Short transient receptor potential channel 4 (Mus musculus, UniProt Q9QUQ5); assay: block of DAMGO-driven TRPC4 calcium entry – cell-based, HEK293 TRPC4/mu-opioid, Fluo-4 calcium, dose response (AID 434942); format: functional;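 note: potency of inhibitors blocking the TRPC4 calcium response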
T1 sequence (Q9QUQ5 whole entry): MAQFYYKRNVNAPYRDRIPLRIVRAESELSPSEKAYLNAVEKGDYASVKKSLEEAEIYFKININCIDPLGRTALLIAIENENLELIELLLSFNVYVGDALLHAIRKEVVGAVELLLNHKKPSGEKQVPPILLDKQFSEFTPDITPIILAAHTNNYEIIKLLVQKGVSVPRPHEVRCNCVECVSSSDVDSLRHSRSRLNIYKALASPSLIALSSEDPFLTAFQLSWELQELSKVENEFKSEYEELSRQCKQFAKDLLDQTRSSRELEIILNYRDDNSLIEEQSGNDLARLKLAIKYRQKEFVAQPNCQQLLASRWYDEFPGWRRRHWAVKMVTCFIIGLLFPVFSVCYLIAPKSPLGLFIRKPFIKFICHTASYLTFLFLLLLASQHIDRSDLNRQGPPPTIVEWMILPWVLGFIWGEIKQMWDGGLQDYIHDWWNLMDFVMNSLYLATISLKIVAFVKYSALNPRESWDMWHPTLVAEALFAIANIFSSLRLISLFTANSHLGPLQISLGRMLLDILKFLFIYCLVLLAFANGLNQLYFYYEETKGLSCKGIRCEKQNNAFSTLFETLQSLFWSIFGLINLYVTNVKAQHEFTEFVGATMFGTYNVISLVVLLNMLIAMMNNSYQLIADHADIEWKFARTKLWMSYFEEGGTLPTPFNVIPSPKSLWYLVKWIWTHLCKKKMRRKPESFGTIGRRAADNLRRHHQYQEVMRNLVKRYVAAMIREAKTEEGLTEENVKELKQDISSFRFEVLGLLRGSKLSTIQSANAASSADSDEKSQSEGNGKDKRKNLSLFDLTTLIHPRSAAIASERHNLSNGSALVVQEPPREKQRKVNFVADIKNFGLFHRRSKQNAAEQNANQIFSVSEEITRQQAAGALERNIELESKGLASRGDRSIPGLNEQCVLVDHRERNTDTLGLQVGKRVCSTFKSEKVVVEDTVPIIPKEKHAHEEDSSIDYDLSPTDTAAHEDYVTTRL

Protein skinhead-1 = biological target: T2, Protein skinhead-1 (Caenorhabditis elegans, UniProt P34707); format: functional
T2 sequence (P34707 whole entry): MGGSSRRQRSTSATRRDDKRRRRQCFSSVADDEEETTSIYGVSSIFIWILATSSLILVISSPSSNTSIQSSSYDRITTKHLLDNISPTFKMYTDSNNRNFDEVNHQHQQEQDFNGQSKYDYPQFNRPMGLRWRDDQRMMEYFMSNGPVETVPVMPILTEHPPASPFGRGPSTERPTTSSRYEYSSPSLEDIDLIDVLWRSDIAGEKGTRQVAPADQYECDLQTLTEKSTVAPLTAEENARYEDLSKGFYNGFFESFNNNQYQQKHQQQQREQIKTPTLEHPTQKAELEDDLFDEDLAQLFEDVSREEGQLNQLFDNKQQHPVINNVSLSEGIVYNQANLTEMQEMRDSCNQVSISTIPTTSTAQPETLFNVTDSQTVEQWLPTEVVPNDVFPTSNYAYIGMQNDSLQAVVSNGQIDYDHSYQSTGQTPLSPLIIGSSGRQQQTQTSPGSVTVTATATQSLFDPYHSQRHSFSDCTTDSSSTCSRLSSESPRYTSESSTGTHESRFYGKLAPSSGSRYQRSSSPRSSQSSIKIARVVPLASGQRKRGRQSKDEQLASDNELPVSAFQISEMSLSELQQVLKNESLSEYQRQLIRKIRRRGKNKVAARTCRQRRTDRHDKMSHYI

Compound | EC50 [1] | IC50 (Protein skinhead-1)
C=CCc1ccccc1OCC(O)CN1CCN(c2ccccc2OC)CC1 (stereo not drawn) | 5.31 µM (active) | –
CCC1CCCCN1CCN1C(=O)C2C(C(=O)Nc3ccc(OC)cc3)C3C=CC2(O3)C1C(=O)NC1CCCCC1 (stereo not drawn) | 0.0947 µM (active) | > 100 µM (inactive)
